Assay results: patent US10206399B2, “Herbicidal composition comprising uracil compound as active ingredient” (Dongbu Farm Hannong Co., Ltd., priority 2012, dated 2019)
Read-outs that look alike come from different tables or passages of the source.

Columns and labels:
Abutilon theophrasti = assay: whole plant or invertebrate; conditions: for pest or weed control at 150 g/ha: read-out: plant mortality, measured value, 150 g/ha; for pest or weed control at 300 g/ha: read-out: plant mortality, measured value, 300 g/ha
Text: (§1) X is % damage by uracil compound (a) of formula 1 at the rate of application of p kg/ha; Y is % damage by conventional herbicidal compound (b) at the rate of application of q kg/ha; and E is the expected damage caused by compounds (a) and (b) at a rate of application of p and q kg/ha.
(§2) The expected activity for a given combination of two herbicides can be calculated using equation 1 above.

Aeschynomene indica = assay: whole plant or invertebrate; conditions: for pest or weed control at 150 g/ha: read-out: plant mortality, measured value, 150 g/ha; for pest or weed control at 300 g/ha: read-out: plant mortality, measured value, 300 g/ha
Text: as §1, §2

Echinochloa crus = conditions: for Echinochloa crus mortality, measured value: 20 days after treatment; for plant mortality, measured value: Echinochloa crus
Text: as §1, §2

Digitaria sanguinalis = conditions: for Digitaria sanguinalis mortality, measured value: 20 days after treatment; for plant mortality, measured value: Digitaria sanguinalis
Text: as §1, §2

Xanthium spinosum = assay: whole plant or invertebrate; conditions: for pest or weed control at 150 g/ha: read-out: plant mortality, measured value, 150 g/ha; for pest or weed control at 300 g/ha: read-out: plant mortality, measured value, 300 g/ha
Text: as §1, §2

[1] = 480 h, read-out: Abutilon theophrasti mortality, measured value
[2] = read-out: plant mortality, measured value, 75 g/ha
[3] = 480 h, read-out: Aeschynomene indica mortality, measured value
[4] = 480 h, read-out: Xanthium spinosum mortality, measured value
[5] = read-out: plant mortality, measured value, 600 g/ha

CP(=O)(O)CCC(N)C(=O)O (stereo not drawn) [Glufosinate, reference compound]
mortality at 75 g/ha (Abutilon theophrasti; [1]): 7%
mortality at 150 g/ha (Abutilon theophrasti; [1]): 25%
mortality at 300 g/ha (Abutilon theophrasti; [1]): 49%
pest or weed control at 75 g/ha (Abutilon theophrasti; [2]): 7%
pest or weed control at 150 g/ha (Abutilon theophrasti): 25%
pest or weed control at 300 g/ha (Abutilon theophrasti): 49%
mortality at 75 g/ha (Aeschynomene indica; [3]): 5%
mortality at 150 g/ha (Aeschynomene indica; [3]): 18%
mortality at 300 g/ha (Aeschynomene indica; [3]): 46%
pest or weed control at 75 g/ha (Aeschynomene indica; [2]): 5%
pest or weed control at 150 g/ha (Aeschynomene indica): 18%
pest or weed control at 300 g/ha (Aeschynomene indica): 46%
Echinochloa crus mortality, measured value (Echinochloa crus; 75 g/ha): 15%
plant mortality, measured value (Echinochloa crus; 75 g/ha): 15
Echinochloa crus mortality, measured value (Echinochloa crus; 150 g/ha): 29%
plant mortality, measured value (Echinochloa crus; 150 g/ha): 29
Echinochloa crus mortality, measured value (Echinochloa crus; 300 g/ha): 60%
plant mortality, measured value (Echinochloa crus; 300 g/ha): 60
Digitaria sanguinalis mortality, measured value (Digitaria sanguinalis; 75 g/ha): 11%
plant mortality, measured value (Digitaria sanguinalis; 75 g/ha): 11
Digitaria sanguinalis mortality, measured value (Digitaria sanguinalis; 150 g/ha): 27%
plant mortality, measured value (Digitaria sanguinalis; 150 g/ha): 27
Digitaria sanguinalis mortality, measured value (Digitaria sanguinalis; 300 g/ha): 57%
plant mortality, measured value (Digitaria sanguinalis; 300 g/ha): 57
mortality at 75 g/ha (Xanthium spinosum; [4]): 13%
mortality at 150 g/ha (Xanthium spinosum; [4]): 25%
mortality at 300 g/ha (Xanthium spinosum; [4]): 56%
pest or weed control at 75 g/ha (Xanthium spinosum; [2]): 13%
pest or weed control at 150 g/ha (Xanthium spinosum): 25%
pest or weed control at 300 g/ha (Xanthium spinosum): 56%

O=C(O)CNCP(=O)(O)O [Glyphosate, reference compound]
mortality at 150 g/ha (Abutilon theophrasti; [1]): 8%
mortality at 300 g/ha (Abutilon theophrasti; [1]): 27%
mortality at 600 g/ha (Abutilon theophrasti; [1]): 59%
pest or weed control at 150 g/ha (Abutilon theophrasti): 8%
pest or weed control at 300 g/ha (Abutilon theophrasti): 27%
pest or weed control at 600 g/ha (Abutilon theophrasti; [5]): 59%
mortality at 150 g/ha (Aeschynomene indica; [3]): 9%
mortality at 300 g/ha (Aeschynomene indica; [3]): 22%
mortality at 600 g/ha (Aeschynomene indica; [3]): 47%
pest or weed control at 150 g/ha (Aeschynomene indica): 9%
pest or weed control at 300 g/ha (Aeschynomene indica): 22%
pest or weed control at 600 g/ha (Aeschynomene indica; [5]): 47%
Echinochloa crus mortality, measured value (Echinochloa crus; 150 g/ha): 12%
plant mortality, measured value (Echinochloa crus; 150 g/ha): 12
Echinochloa crus mortality, measured value (Echinochloa crus; 300 g/ha): 23%
plant mortality, measured value (Echinochloa crus; 300 g/ha): 23
Echinochloa crus mortality, measured value (Echinochloa crus; 600 g/ha): 48%
plant mortality, measured value (Echinochloa crus; 600 g/ha): 48
Digitaria sanguinalis mortality, measured value (Digitaria sanguinalis; 150 g/ha): 8%
plant mortality, measured value (Digitaria sanguinalis; 150 g/ha): 8
Digitaria sanguinalis mortality, measured value (Digitaria sanguinalis; 300 g/ha): 18%
plant mortality, measured value (Digitaria sanguinalis; 300 g/ha): 18
Digitaria sanguinalis mortality, measured value (Digitaria sanguinalis; 600 g/ha): 46%
plant mortality, measured value (Digitaria sanguinalis; 600 g/ha): 46
mortality at 150 g/ha (Xanthium spinosum; [4]): 11%
mortality at 300 g/ha (Xanthium spinosum; [4]): 30%
mortality at 600 g/ha (Xanthium spinosum; [4]): 64%
pest or weed control at 150 g/ha (Xanthium spinosum): 11%
pest or weed control at 300 g/ha (Xanthium spinosum): 30%
pest or weed control at 600 g/ha (Xanthium spinosum; [5]): 64%

CC(Oc1ccc(Oc2ncc(C(F)(F)F)cc2Cl)cc1)C(=O)O (stereo not drawn) [Haloxyfop, reference compound]
mortality at 12.5 g/ha (Abutilon theophrasti; [1]): 0%
mortality at 25 g/ha (Abutilon theophrasti; [1]): 0%
mortality at 50 g/ha (Abutilon theophrasti; [1]): 0%
mortality at 12.5 g/ha (Aeschynomene indica; [3]): 0%
mortality at 25 g/ha (Aeschynomene indica; [3]): 0%
mortality at 50 g/ha (Aeschynomene indica; [3]): 0%
Echinochloa crus mortality, measured value (Echinochloa crus; 12.5 g/ha): 11%
Echinochloa crus mortality, measured value (Echinochloa crus; 25 g/ha): 28%
Echinochloa crus mortality, measured value (Echinochloa crus; 50 g/ha): 58%
Digitaria sanguinalis mortality, measured value (Digitaria sanguinalis; 12.5 g/ha): 14%
Digitaria sanguinalis mortality, measured value (Digitaria sanguinalis; 25 g/ha): 29%
Digitaria sanguinalis mortality, measured value (Digitaria sanguinalis; 50 g/ha): 57%
mortality at 12.5 g/ha (Xanthium spinosum; [4]): 0%
mortality at 25 g/ha (Xanthium spinosum; [4]): 0%
mortality at 50 g/ha (Xanthium spinosum; [4]): 0%

CCc1cnc(C2=NC(C)(C(C)C)C(=O)N2)c(C(=O)O)c1 (stereo not drawn) [Imazethapyr]
pest or weed control at 25 g/ha (Abutilon theophrasti; read-out: Data (measured value) Abutilon theophrasti, 25 g/ha): 9%
pest or weed control at 50 g/ha (Abutilon theophrasti; read-out: Data (measured value) Abutilon theophrasti, 50 g/ha): 24%
pest or weed control at 100 g/ha (Abutilon theophrasti; read-out: Data (measured value) Abutilon theophrasti, 100 g/ha): 58%
pest or weed control at 25 g/ha (Aeschynomene indica; read-out: Data (measured value) Aeschynomene indica, 25 g/ha): 11%
pest or weed control at 50 g/ha (Aeschynomene indica; read-out: Data (measured value) Aeschynomene indica, 50 g/ha): 25%
pest or weed control at 100 g/ha (Aeschynomene indica; read-out: Data (measured value) Aeschynomene indica, 100 g/ha): 54%
Data (measured value) Echinochloa crus (Echinochloa crus; 25 g/ha): 11
Data (measured value) Echinochloa crus (Echinochloa crus; 50 g/ha): 26
Data (measured value) Echinochloa crus (Echinochloa crus; 100 g/ha): 53
Data (measured value) Digitaria sanguinalis (Digitaria sanguinalis; 25 g/ha): 11
Data (measured value) Digitaria sanguinalis (Digitaria sanguinalis; 50 g/ha): 26
Data (measured value) Digitaria sanguinalis (Digitaria sanguinalis; 100 g/ha): 62
pest or weed control at 25 g/ha (Xanthium spinosum; read-out: Data (measured value) Xanthium spinosum, 25 g/ha): 9%
pest or weed control at 50 g/ha (Xanthium spinosum; read-out: Data (measured value) Xanthium spinosum, 50 g/ha): 20%
pest or weed control at 100 g/ha (Xanthium spinosum; read-out: Data (measured value) Xanthium spinosum, 100 g/ha): 47%
